We go through 18 molecules from patent US9617263B2, “Phenyl-triazolo-pyridine compounds” (Eli Lilly and Company, priority 2014, dated 2017).

A value given as a limit tells only on which side of the number the result lay.

Chain of hGPR40 (O14842 whole entry): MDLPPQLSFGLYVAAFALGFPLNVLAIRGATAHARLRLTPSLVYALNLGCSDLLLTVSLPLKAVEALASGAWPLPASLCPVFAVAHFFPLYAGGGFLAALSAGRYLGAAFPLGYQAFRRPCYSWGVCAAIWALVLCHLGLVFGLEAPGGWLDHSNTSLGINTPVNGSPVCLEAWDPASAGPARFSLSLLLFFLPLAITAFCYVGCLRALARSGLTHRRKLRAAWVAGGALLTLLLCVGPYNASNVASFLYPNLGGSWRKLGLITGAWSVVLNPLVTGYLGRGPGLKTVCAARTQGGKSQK

For the first test, the system named is Male Balb/c mice. Put plainly: Intraperitoneal glucose tolerance test (IPGTT). Type of test: in vivo, mouse. As to conditions: 30 and 60 minute time points; Example 1 at 10, 30, 100 mg/kg oral; positive control 10 mg/kg. Here is the method: To examine the ability of Examples 1 to 20 to activate GPR40 in-vivo resulting in desired glucose lowering efficacy, i.e. reduction in plasma glucose levels, an intraperitoneal glucose tolerance test (ipGTT) study is completed, and the data is shown for the compound tested below.
Male Balb/c (Albino mice) mice (8-9 weeks of age) are single housed, and fed with normal rodent chow diet and water ad libitum. Animals are weighed; randomized by body weight; and their daily body weights are recorded. Animals are dosed daily using a formulation carrying methylcellulose and tween-80. On the night before the study, animals are fasted. In the morning, animals are dosed orally with compound or vehicle alone 60 minutes prior to the glucose tolerance test (glucose 2 g/kg, i.p.). Blood glucose levels are determined from tail bleeds taken at 0, 3, 7, 15, 30, and 60 min after glucose challenge. […] Percent lowering in glucose is calculated from the AUC data of the compound with respect to the AUC of vehicle group. The test compound is orally administered at 0.3, 1.0, 3.0, 10, 30, or 100 mg/kg, and a positive control (3-[4-(2-methyl-benzyloxy)-phenyl]-hex-4-ynoic acid, see WO2005086661 (TAK875).) is administered at 10 mg/kg. […] Glucose levels are lowered at the 30, and 60 minute time points for the positive control.
Regarding `Cc1cc(OCCCS(C)(=O)=O)cc(C)c1-c1cccc(COc2ccc3c(c2)OC[C@H]3CC(=O)O)c1` [TAK875, fasiglifam, reference compound], the “Glucose levels compared to vehicle control” value is “lowered”.

The next test concerns Zucker fa/fa rats. Kind of test: Acute oral glucose tolerance test (OGTT). As to conditions: oral; Example 1 at 1, 3 and 10 mg/kg, TAK875 at 1 mg/kg; p<0.05. It counts as in vivo, rat. The procedure: OGTTs are performed in Zucker fa/fa rats, a rodent model of insulin resistance, after 1 and 21 days of orally administered material at 1.0, 3.0 and 10 mg/kg. TAK875 at 1 mg/kg served as the positive control. The OGTTs are performed one hour post compound administration with blood samples taken for determination of glucose and insulin levels at 10, 20, 40, 60, and 120 minutes post glucose administration.
Take `Cc1cc(OCCCS(C)(=O)=O)cc(C)c1-c1cccc(COc2ccc3c(c2)OC[C@H]3CC(=O)O)c1` [TAK875, fasiglifam, reference compound]: the “AUCs for glucose lowering” value is listed as “statistically significant”.

A further test concerns the target hGPR40 (Homo sapiens, UniProt O14842). Put plainly: Calcium Flux Primary Assay (FLIPR, Calcium 4 Dye). Type of test: cell-based. The arrangement: expressed in transfected cells; host or cells: HEK293. The conditions noted are these: HEK293, HEK293 cells over expressing human GPR40; vs natural ligand linoleic acid; read-out: efficacy (maximal response compared to linoleic acid). Here is the method:
HEK293 cells over expressing the human GPR40 cDNA maintained in Dulbecco's modified Eagle's medium with F12 medium in 3:1 ratio supplemented with 10% FBS and 800 μg/ml geneticin at 37° C. and 5% CO2 are employed for the study. Agonist assays are performed using a Calcium 4 Dye assay kit (Molecular Devices) in the presence or absence of 0.1% fatty acid free BSA in the assay buffer (1×HBSS (Hank's Balanced Salt Solution) & 20 mM HEPES (4-(2-hydroxyethyl)-1-piperazineethanesulfonic acid). Receptor activation is measured as an increase in intracellular calcium using the Fluorometric Imaging Plate Reader (FLIPR). Maximum change in fluorescence over the base line is used to determine the agonist response. The EC50 value of the compound is calculated using Excel Fit software (version 4; IDBS) by plotting concentration vs relative fluorescence units (RFUs).
For the molecule `CC#C[C@@H](CC(=O)O)c1ccc(OCc2cc(-c3c(C)cccc3F)cn3ncnc23)cc1` [Example 3, (S)-3-{4-[6-(2-Fluoro-6-methyl-phenyl)-[1,2,4]triazolo[1,5-a]pyridin-8-ylmethoxy]-phenyl}-hex-4-ynoic acid], the Emax is greater than 35%.
Same read-out and setting: the result for `CC#C[C@@H](CC(=O)O)c1ccc(OCc2cc(-c3c(C)cc(OC)cc3C)cn3ncnc23)cc1` [Example 5, (S)-3-{4-[6-(4-Methoxy-2,6-dimethyl-phenyl)-[1,2,4]triazolo[1,5-a]pyridin-8-ylmethoxy]-phenyl}-hex-4-ynoic acid] reads greater than 35%; that for `CC#C[C@@H](CC(=O)O)c1ccc(OCc2cc(-c3ccc(C#N)cc3)cn3ncnc23)cc1` [Example 13, (S)-3-{4-[6-(4-Cyano-phenyl)-[1,2,4]triazolo[1,5-a]pyridin-8-ylmethoxy]-phenyl}-hex-4-ynoic acid], greater than 35%; that for `CC#C[C@@H](CC(=O)O)c1ccc(OCc2cc(-c3ccc(C(C)(C)C#N)cc3)cn3ncnc23)cc1` [Example 19, (S)-3-(4-{6-[4-(Cyano-dimethyl-methyl)-phenyl]-[1,2,4]triazolo[1,5-a]pyridin-8-ylmethoxy}-phenyl)-hex-4-ynoic acid], greater than 35%.
`CC#C[C@@H](CC(=O)O)c1ccc(OCc2cc(-c3ccc(OCCC(C)(C)O)cc3C)cn3ncnc23)cc1` [Example 8, (S)-3-(4-{6-[4-(3-Hydroxy-3-methyl-butoxy)-2-methyl-phenyl]-[1,2,4]triazolo[1,5-a]pyridin-8-ylmethoxy}-phenyl)-hex-4-ynoic acid]: the Emax is greater than 35%.
On the same count and under the same terms, in the case of `CC#C[C@@H](CC(=O)O)c1ccc(OCc2cc(-c3ccc(OC)cc3)cn3ncnc23)cc1` [Example 2, (S)-3-{4-[6-(4-Methoxy-phenyl)-[1,2,4]triazolo[1,5-a]pyridin-8-ylmethoxy]-phenyl}-hex-4-ynoic acid] it was greater than 35%; in that of `CC#C[C@@H](CC(=O)O)c1ccc(OCc2cc(-c3ccc(C(C)C)cc3)cn3ncnc23)cc1` [Example 9, (S)-3-{4-[6-(4-Isopropyl-phenyl)-[1,2,4]triazolo[1,5-a]pyridin-8-ylmethoxy]-phenyl}-hex-4-ynoic acid], greater than 35%; in that of `CC#C[C@@H](CC(=O)O)c1ccc(OCc2cc(-c3ccc(OC)cc3C)cn3ncnc23)cc1` [Example 4, (S)-3-{4-[6-(4-Methoxy-2-methyl-phenyl)-[1,2,4]triazolo[1,5-a]pyridin-8-ylmethoxy]-phenyl}-hex-4-ynoic acid], greater than 35%.
On the same count and under the same terms, the result for `CC#C[C@@H](CC(=O)O)c1ccc(OCc2cc(-c3cc(OC)ccc3F)cn3ncnc23)cc1` [Example 6] reads greater than 35%; that for `CC#C[C@@H](CC(=O)O)c1ccc(OCc2cc(-c3cc(Cl)ccc3C)cn3ncnc23)cc1` [Example 12], greater than 35%.
On to `CC#C[C@@H](CC(=O)O)c1ccc(OCc2cc(-c3c(C)cccc3C)cn3ncnc23)cc1` [Example 11, (S)-3-{4-[6-(2,6-Dimethyl-phenyl)-[1,2,4]triazolo[1,5-a]pyridin-8-ylmethoxy]-phenyl}-hex-4-ynoic acid], for which the Emax was greater than 35%.
Same read-out and setting: the result for `CC#C[C@@H](CC(=O)O)c1ccc(OCc2cc(-c3ccc(C(F)F)cc3)cn3ncnc23)cc1` [Example 15, (S)-3-{4-[6-(4-Difluoromethyl-phenyl)-[1,2,4]triazolo[1,5-a]pyridin-8-ylmethoxy]-phenyl}-hex-4-ynoic acid] reads greater than 35%; that for `CC#C[C@@H](CC(=O)O)c1ccc(OCc2cc(-c3ccc(S(N)(=O)=O)cc3C)cn3ncnc23)cc1` [Example 18, (S)-3-{4-[6-(2-Methyl-4-sulfamoyl-phenyl)-[1,2,4]triazolo[1,5-a]pyridin-8-ylmethoxy]-phenyl}-hex-4-ynoic acid], greater than 35%.
Still for that read-out and setting: the result for `CC#C[C@@H](CC(=O)O)c1ccc(OCc2cc(-c3ccc(OC(F)F)cc3C)cn3ncnc23)cc1` [Example 20, (S)-3-{4-[6-(4-Difluoromethoxy-2-methyl-phenyl)-[1,2,4]triazolo[1,5-a]pyridin-8-ylmethoxy]-phenyl}-hex-4-ynoic acid] reads greater than 35%.
On the same count and under the same terms, the result for `CC#C[C@@H](CC(=O)O)c1ccc(OCc2cc(-c3ccc(S(C)(=O)=O)cc3)cn3ncnc23)cc1` [Example 17] reads greater than 35%; that for `CC#C[C@@H](CC(=O)O)c1ccc(OCc2cc(-c3ccc(OCC#N)cc3C)cn3ncnc23)cc1` [Example 16, (S)-3-{4-[6-(4-Cyanomethoxy-2-methyl-phenyl)-[1,2,4]triazolo[1,5-a]pyridin-8-ylmethoxy]-phenyl}-hex-4-ynoic acid], greater than 35%; that for `CC#C[C@@H](CC(=O)O)c1ccc(OCc2cc(-c3ccc(OCCCS(C)(=O)=O)cc3C)cn3ncnc23)cc1` [Example 7, (S)-3-(4-{6-[4-(3-Methanesulfonyl-propoxy)-2-methyl-phenyl]-[1,2,4]triazolo[1,5-a]pyridin-8-ylmethoxy}-phenyl)-hex-4-ynoic acid], greater than 35%.
